Among the data in PubChem BioAssay AID256 (DTP/NCI, 2004) are T/C values, retold here.

Several values for one entry are separate records, joined by “and”; a condition that tells them apart may be missing. Equal entries are not always repeated. Toxic doses and inconclusive results are not listed.

In the experiment the test system is CD2F1 mice, L1210 leukemia ip, survival T/C. Put plainly: NCI In Vivo Anticancer Drug Screen. Data for tumor model L1210 Leukemia (intraperitoneal) in CD2F1 (CDF1) mice. The settings on record: higher = longer survival. A digest of the protocol: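 Tumor-bearing mice (transplanted tumor) were split into treated and vehicle control groups, and the measured endpoint of each treated group was divided by that of its vehicle controls.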

[1] abbreviates: endpoint: mean survival time, dose: 100.0 mg/kg/injection, schedule: Q04DX003 (ip), vehicle: saline with Tween-80.
[2] abbreviates: endpoint: mean survival time, dose: 200.0 mg/kg/injection, schedule: Q04DX003 (ip), vehicle: saline with Tween-80.
Setting [3] is: endpoint: mean survival time, dose: 400.0 mg/kg/injection, schedule: Q04DX003 (ip), vehicle: saline with Tween-80.
[4] abbreviates: endpoint: mean survival time, dose: 25.0 mg/kg/injection, schedule: Q01DX009 (ip), vehicle: saline with Tween-80.
[5] abbreviates: endpoint: mean survival time, dose: 200.0 mg/kg/injection, schedule: Q04DX002 (ip), vehicle: saline with Tween-80.
Where [6] appears, read: endpoint: mean survival time, dose: 100.0 mg/kg/injection, schedule: Q04DX003 (ip), vehicle: other.
The mark [7] stands for this setting: endpoint: mean survival time, dose: 200.0 mg/kg/injection, schedule: Q04DX003 (ip), vehicle: other.
[8] abbreviates: endpoint: mean survival time, dose: 400.0 mg/kg/injection, schedule: Q04DX003 (ip), vehicle: other.

With `Cc1ccc(C(C)C)c(OCCCBr)c1`, the T/C was 101 % of control (endpoint: mean survival time, dose: 25.0 mg/kg/injection, schedule: Q04DX003 (ip), vehicle: saline with Tween-80); 95 % of control (endpoint: mean survival time, dose: 50.0 mg/kg/injection, schedule: Q04DX003 (ip), vehicle: saline with Tween-80); 94 % of control and 95 % of control under setting [1].

For the molecule `CN(C)Cc1c(-c2ccccc2)c(CN(C)C)n2ccccc12`, the T/C (endpoint: mean survival time, dose: 75.0 mg/kg/injection, schedule: Q01DX001 (ip), vehicle: saline) is 97 % of control.

Turning to `Cc1cc(/C=C/c2ccc3cc(N(C)C)ccc3[n+]2C)c(C)n1-c1ccccc1`, the T/C reads like this: (endpoint: mean survival time, dose: 0.1 mg/kg/injection, schedule: Q01DX009 (ip), vehicle: saline with Tween-80) 95 % of control; (endpoint: mean survival time, dose: 0.2 mg/kg/injection, schedule: Q01DX009 (ip), vehicle: saline with Tween-80) 95 % of control; (endpoint: mean survival time, dose: 0.39 mg/kg/injection, schedule: Q01DX009 (ip), vehicle: saline with Tween-80) 98 % of control; (endpoint: mean survival time, dose: 0.78 mg/kg/injection, schedule: Q01DX009 (ip), vehicle: saline with Tween-80) 101 % of control.

Take `N#CCc1ccc(N=Nc2c(N)nc(N)nc2N)cc1`: the T/C was 92 % of control under setting [1], 104 % of control under setting [2] and 101 % of control under setting [3].

For `CC(=O)Nc1ccc(Nc2ccc(C(=C3C=CC(=[N+](C)CCC#N)C=C3)c3ccc(N(C)CCC#N)cc3)cc2)cc1`, the T/C reads like this: (endpoint: mean survival time, dose: 12.0 mg/kg/injection, schedule: Q01DX009 (ip), vehicle: saline with Tween-80) 107 % of control; (endpoint: mean survival time, dose: 12.5 mg/kg/injection, schedule: Q01DX009 (ip), vehicle: saline with Tween-80) 107 % of control; under setting [4], 105 % of control and 109 % of control; under setting [5], 106 % of control.

On to `[Br][Pt+2][Br].[NH-]c1ccccc1F.[NH-]c1ccccc1F`, for which the T/C reads like this: (endpoint: mean survival time, dose: 3.13 mg/kg/injection, schedule: Q04DX003 (ip), vehicle: distilled water + Tween-80) 104 % of control; (endpoint: mean survival time, dose: 6.25 mg/kg/injection, schedule: Q04DX003 (ip), vehicle: distilled water + Tween-80) 104 % of control; (endpoint: mean survival time, dose: 12.5 mg/kg/injection, schedule: Q04DX003 (ip), vehicle: distilled water + Tween-80) 108 % of control; (endpoint: mean survival time, dose: 25.0 mg/kg/injection, schedule: Q04DX003 (ip), vehicle: distilled water + Tween-80) 108 % of control; (endpoint: mean survival time, dose: 50.0 mg/kg/injection, schedule: Q04DX003 (ip), vehicle: distilled water + Tween-80) 101 % of control; (endpoint: mean survival time, dose: 100.0 mg/kg/injection, schedule: Q04DX003 (ip), vehicle: distilled water + Tween-80) 93 % of control.

For the molecule `C/C(CCc1cnc2ccccc2c1)=N/NC(N)=O`, the T/C reads like this: (endpoint: mean survival time, dose: 100.0 mg/kg/injection, schedule: Q04DX002 (ip), vehicle: saline with Tween-80) 96 % of control; under setting [5], 88 % of control; (endpoint: mean survival time, dose: 400.0 mg/kg/injection, schedule: Q04DX002 (ip), vehicle: saline with Tween-80) 103 % of control.

As to `O=C1CCC(=O)N1CC(O)COc1ccc(Cl)cc1` (centres undefined), the T/C under setting [1] is 95 % of control, the T/C under setting [2] is 98 % of control and the T/C under setting [3] is 95 % of control.

Regarding `Cc1ccc(S(=O)(=O)N/N=C/C(Br)=C(/Br)C(=O)O)cc1`, the T/C is, setting by setting: (endpoint: mean survival time, dose: 3.12 mg/kg/injection, schedule: Q01DX009 (ip), vehicle: Klucel (hydroxypropylcellulose) (HPC)) 104 % of control; (endpoint: mean survival time, dose: 6.25 mg/kg/injection, schedule: Q01DX009 (ip), vehicle: Klucel (hydroxypropylcellulose) (HPC)) 112 % of control; (endpoint: mean survival time, dose: 12.5 mg/kg/injection, schedule: Q01DX009 (ip), vehicle: Klucel (hydroxypropylcellulose) (HPC)) 113 % of control; (endpoint: mean survival time, dose: 25.0 mg/kg/injection, schedule: Q01DX009 (ip), vehicle: Klucel (hydroxypropylcellulose) (HPC)) 115 % of control and 105 % of control; (endpoint: mean survival time, dose: 50.0 mg/kg/injection, schedule: Q01DX009 (ip), vehicle: Klucel (hydroxypropylcellulose) (HPC)) 113 % of control and 102 % of control; (endpoint: mean survival time, dose: 100.0 mg/kg/injection, schedule: Q01DX009 (ip), vehicle: Klucel (hydroxypropylcellulose) (HPC)) 120 % of control and 108 % of control. The T/C (endpoint: mean survival time, dose: 200.0 mg/kg/injection, schedule: Q01DX009 (ip), vehicle: Klucel (hydroxypropylcellulose) (HPC)) is 104 % of control.

As to `COc1cc(CCl)ccc1OCc1ccccc1`, the T/C is 98 % of control under setting [6], 98 % of control under setting [7] and 109 % of control under setting [8].

In the case of `Cc1cc(C)c(O)c(C)c1C`, the T/C reads like this: (endpoint: mean survival time, dose: 31.25 mg/kg/injection, schedule: Q01DX009 (ip), vehicle: saline) 100 % of control; (endpoint: mean survival time, dose: 62.5 mg/kg/injection, schedule: Q01DX009 (ip), vehicle: saline) 91 % of control; (endpoint: mean survival time, dose: 125.0 mg/kg/injection, schedule: Q01DX009 (ip), vehicle: saline) 95 % of control; (endpoint: mean survival time, dose: 250.0 mg/kg/injection, schedule: Q01DX009 (ip), vehicle: saline) 93 % of control.

As for `[Cl][Pt][Cl].c1ccc([SeH]c2ccccc2)cc1.c1ccc([SeH]c2ccccc2)cc1`, the T/C (endpoint: mean survival time, dose: 25.0 mg/kg/injection, schedule: Q04DX003 (ip), vehicle: other) is 97 % of control; the T/C (endpoint: mean survival time, dose: 50.0 mg/kg/injection, schedule: Q04DX003 (ip), vehicle: other) is 102 % of control; the T/C under setting [6] was 98 % of control; the T/C under setting [7] is 101 % of control; the T/C under setting [8] is 100 % of control.

For the molecule `O=C(/C=C/c1ccco1)c1cccnc1`, the T/C by setting is: (endpoint: mean survival time, dose: 100.0 mg/kg/injection, schedule: Q01DX001 (ip), vehicle: saline) 94 % of control; (endpoint: mean survival time, dose: 200.0 mg/kg/injection, schedule: Q01DX001 (ip), vehicle: saline) 100 % of control; (endpoint: mean survival time, dose: 400.0 mg/kg/injection, schedule: Q01DX001 (ip), vehicle: saline) 100 % of control.

As to `O=C(C(=O)c1ccccc1)c1ccccc1`, the T/C is, setting by setting: (endpoint: mean survival time, dose: 100.0 mg/kg/injection, schedule: Q01DX009 (ip), vehicle: saline) 100 % of control; (endpoint: mean survival time, dose: 200.0 mg/kg/injection, schedule: Q01DX009 (ip), vehicle: saline) 101 % of control; (endpoint: mean survival time, dose: 400.0 mg/kg/injection, schedule: Q01DX009 (ip), vehicle: saline) 108 % of control.

Regarding `CNC(=O)OCC1C2=C(C(=O)C(C)=C(N)C2=O)N2CC3C(N3C)C12OC` (centres undefined), the T/C was 113 % of control (endpoint: mean survival time, dose: 75.0 mg/kg/injection, schedule: Q01DX001 (ip), vehicle: carboxymethylcellulose (CMC)) and 113 % of control (endpoint: mean survival time, dose: 150.0 mg/kg/injection, schedule: Q01DX001 (ip), vehicle: carboxymethylcellulose (CMC)).

As for `O=C(COc1ccccc1)Nc1ccc([N+](=O)[O-])cc1`, the T/C is 100 % of control under setting [1], 99 % of control under setting [2] and 100 % of control under setting [3].

With `CCCSCC(CSCCC)(CSCCC)CSCCC`, the T/C (endpoint: mean survival time, dose: 100.0 mg/kg/injection, schedule: Q01DX001 (ip), vehicle: saline with Tween-80) was 107 % of control; the T/C (endpoint: mean survival time, dose: 200.0 mg/kg/injection, schedule: Q01DX001 (ip), vehicle: saline with Tween-80) was 111 % of control; the T/C (endpoint: mean survival time, dose: 400.0 mg/kg/injection, schedule: Q01DX001 (ip), vehicle: saline with Tween-80) was 101 % of control.

For `COc1cccc2c1C(=O)c1c(O)c3c(c(O)c1C2=O)CC(O)(/C(C)=N/NC(=O)CCCCC(=O)N/N=C(\C)C1(O)Cc2c(O)c4c(c(O)c2C(OC2CC(N)C(O)C(C)O2)C1)C(=O)c1c(OC)cccc1C4=O)CC3OC1CC(N)C(O)C(C)O1` (centres undefined), the T/C was 116 % of control and 123 % of control (endpoint: median survival time, dose: 1.5 mg/kg/injection, schedule: Q01DX009 (ip), vehicle: water); 121 % of control (endpoint: median survival time, dose: 3.0 mg/kg/injection, schedule: Q01DX009 (ip), vehicle: water); 153 % of control (endpoint: median survival time, dose: 6.25 mg/kg/injection, schedule: Q01DX009 (ip), vehicle: water); 108 % of control (endpoint: median survival time, dose: 12.5 mg/kg/injection, schedule: Q01DX009 (ip), vehicle: water); 97 % of control (endpoint: median survival time, dose: 24.0 mg/kg/injection, schedule: Q01DX009 (ip), vehicle: water); 87 % of control (endpoint: median survival time, dose: 25.0 mg/kg/injection, schedule: Q01DX009 (ip), vehicle: water).

With `C/C(=C\Cl)CNC(C)C`, the T/C under setting [4] is 101 % of control; the T/C (endpoint: mean survival time, dose: 50.0 mg/kg/injection, schedule: Q01DX009 (ip), vehicle: saline with Tween-80) was 100 % of control; the T/C (endpoint: mean survival time, dose: 100.0 mg/kg/injection, schedule: Q01DX001 (ip), vehicle: acetone) was 98 % of control.
